In ChEMBL document CHEMBL1641588, “3-[Benzimidazo- and 3-[benzothiadiazoleimidazo-(1,2-c)quinazolin-5-yl]-2H-chromene-2-ones as potent antimicrobial agents” (2011):
Converted amounts (≈) assume the structure as drawn.

Test system: Candida albicans
Assay: Antifungal activity against Candida albicans by liquid dilution method
Format: functional
Conditions: not given

| SMILES | MIC [µg/mL] |
| --- | --- |
| O=c1oc2c(Br)cc(Br)cc2cc1-c1nc2ccccc2c2nc3ccccc3n12 | 15 (≈ 28.8 µM) |
| Cc1cccc2cc(-c3nc4ccccc4c4nc5ccccc5n34)c(=O)oc12 | 45 (≈ 119 µM) |
| O=c1oc2ccc([N+](=O)[O-])cc2cc1-c1nc2ccccc2c2nc3ccccc3n12 | 50 (≈ 122 µM) |
| O=c1oc2ccccc2cc1-c1nc2ccccc2c2nc3c4nsnc4ccc3n12 | 45 (≈ 107 µM) |

Test system: Aspergillus niger
Assay: Antifungal activity against Aspergillus niger by liquid dilution method
Format: functional
Conditions: not given

| SMILES | MIC [µg/mL] |
| --- | --- |
| O=c1oc2c(Br)cc(Br)cc2cc1-c1nc2ccccc2c2nc3ccccc3n12 | 20 (≈ 38.4 µM) |
| Cc1cccc2cc(-c3nc4ccccc4c4nc5ccccc5n34)c(=O)oc12 | 50 (≈ 132 µM) |
| O=c1oc2ccc([N+](=O)[O-])cc2cc1-c1nc2ccccc2c2nc3ccccc3n12 | 45 (≈ 110 µM) |
| O=c1oc2ccccc2cc1-c1nc2ccccc2c2nc3c4nsnc4ccc3n12 | 40 (≈ 94.9 µM) |

Test system: Bacillus subtilis
Assay: Antibacterial activity against Bacillus subtilis at 1000 ug/mL after 72 hrs by agar diffusion assay
Format: functional
Conditions: read-out: IZ

| SMILES | zone of inhibition at 1000 µg/mL [mm] |
| --- | --- |
| O=c1oc2c(Br)cc(Br)cc2cc1-c1nc2ccccc2c2nc3ccccc3n12 | 34 |
| Cc1cccc2cc(-c3nc4ccccc4c4nc5ccccc5n34)c(=O)oc12 | 30 |
| O=c1oc2ccc([N+](=O)[O-])cc2cc1-c1nc2ccccc2c2nc3ccccc3n12 | 27 |
| O=c1oc2ccccc2cc1-c1nc2ccccc2c2nc3c4nsnc4ccc3n12 | 32 |

Test system: Streptococcus pyogenes
Assay: Antibacterial activity against Streptococcus pyogenes at 1000 ug/mL after 72 hrs by agar diffusion assay
Format: functional
Conditions: read-out: IZ

| SMILES | zone of inhibition at 1000 µg/mL [mm] |
| --- | --- |
| O=c1oc2c(Br)cc(Br)cc2cc1-c1nc2ccccc2c2nc3ccccc3n12 | 36 |
| Cc1cccc2cc(-c3nc4ccccc4c4nc5ccccc5n34)c(=O)oc12 | 24 |
| O=c1oc2ccc([N+](=O)[O-])cc2cc1-c1nc2ccccc2c2nc3ccccc3n12 | 28 |
| O=c1oc2ccccc2cc1-c1nc2ccccc2c2nc3c4nsnc4ccc3n12 | 22 |

Test system: Streptococcus pyogenes
Assay: Antibacterial activity against Streptococcus pyogenes by liquid dilution method
Format: functional
Conditions: not given

| SMILES | MIC [µg/mL] |
| --- | --- |
| O=c1oc2c(Br)cc(Br)cc2cc1-c1nc2ccccc2c2nc3ccccc3n12 | 20 (≈ 38.4 µM) |
| Cc1cccc2cc(-c3nc4ccccc4c4nc5ccccc5n34)c(=O)oc12 | 45 (≈ 119 µM) |
| O=c1oc2ccc([N+](=O)[O-])cc2cc1-c1nc2ccccc2c2nc3ccccc3n12 | 40 (≈ 97.9 µM) |
| O=c1oc2ccccc2cc1-c1nc2ccccc2c2nc3c4nsnc4ccc3n12 | 45 (≈ 107 µM) |

Test system: Aspergillus niger
Assay: Antifungal activity against Aspergillus niger at 1000 ug/mL after 72 hrs by agar diffusion assay
Format: functional
Conditions: read-out: IZ

| SMILES | zone of inhibition at 1000 µg/mL [mm] |
| --- | --- |
| O=c1oc2c(Br)cc(Br)cc2cc1-c1nc2ccccc2c2nc3ccccc3n12 | 48 |
| Cc1cccc2cc(-c3nc4ccccc4c4nc5ccccc5n34)c(=O)oc12 | 27 |
| O=c1oc2ccc([N+](=O)[O-])cc2cc1-c1nc2ccccc2c2nc3ccccc3n12 | 29 |
| O=c1oc2ccccc2cc1-c1nc2ccccc2c2nc3c4nsnc4ccc3n12 | 22 |

Test system: Salmonella typhimurium
Assay: Antibacterial activity against Salmonella Typhimurium at 1000 ug/mL after 72 hrs by agar diffusion assay
Format: functional, Salmonella enterica subsp. enterica serovar Typhimurium
Conditions: Salmonella enterica, read-out: IZ

| SMILES | zone of inhibition at 1000 µg/mL [mm] |
| --- | --- |
| O=c1oc2c(Br)cc(Br)cc2cc1-c1nc2ccccc2c2nc3ccccc3n12 | 36 |
| Cc1cccc2cc(-c3nc4ccccc4c4nc5ccccc5n34)c(=O)oc12 | 35 |
| O=c1oc2ccc([N+](=O)[O-])cc2cc1-c1nc2ccccc2c2nc3ccccc3n12 | 32 |
| O=c1oc2ccccc2cc1-c1nc2ccccc2c2nc3c4nsnc4ccc3n12 | 24 |

Test system: Escherichia coli
Assay: Antibacterial activity against Escherichia coli at 1000 ug/mL after 72 hrs by agar diffusion assay
Format: functional
Conditions: read-out: IZ

| SMILES | zone of inhibition at 1000 µg/mL [mm] |
| --- | --- |
| O=c1oc2c(Br)cc(Br)cc2cc1-c1nc2ccccc2c2nc3ccccc3n12 | 41 |
| Cc1cccc2cc(-c3nc4ccccc4c4nc5ccccc5n34)c(=O)oc12 | 32 |
| O=c1oc2ccc([N+](=O)[O-])cc2cc1-c1nc2ccccc2c2nc3ccccc3n12 | 35 |
| O=c1oc2ccccc2cc1-c1nc2ccccc2c2nc3c4nsnc4ccc3n12 | 26 |

Test system: Staphylococcus aureus
Assay: Antibacterial activity against Staphylococcus aureus at 1000 ug/mL after 72 hrs by agar diffusion assay
Format: functional
Conditions: read-out: IZ

| SMILES | zone of inhibition at 1000 µg/mL [mm] |
| --- | --- |
| O=c1oc2c(Br)cc(Br)cc2cc1-c1nc2ccccc2c2nc3ccccc3n12 | 39 |
| Cc1cccc2cc(-c3nc4ccccc4c4nc5ccccc5n34)c(=O)oc12 | 32 |
| O=c1oc2ccc([N+](=O)[O-])cc2cc1-c1nc2ccccc2c2nc3ccccc3n12 | 24 |
| O=c1oc2ccccc2cc1-c1nc2ccccc2c2nc3c4nsnc4ccc3n12 | 31 |

Test system: Staphylococcus aureus
Assay: Antibacterial activity against Staphylococcus aureus by liquid dilution method
Format: functional
Conditions: not given

| SMILES | MIC [µg/mL] |
| --- | --- |
| O=c1oc2c(Br)cc(Br)cc2cc1-c1nc2ccccc2c2nc3ccccc3n12 | 40 (≈ 76.8 µM) |
| Cc1cccc2cc(-c3nc4ccccc4c4nc5ccccc5n34)c(=O)oc12 | 30 (≈ 79.5 µM) |
| O=c1oc2ccc([N+](=O)[O-])cc2cc1-c1nc2ccccc2c2nc3ccccc3n12 | 35 (≈ 85.7 µM) |
| O=c1oc2ccccc2cc1-c1nc2ccccc2c2nc3c4nsnc4ccc3n12 | 50 (≈ 119 µM) |

Test system: Klebsiella pneumoniae
Assay: Antibacterial activity against Klebsiella pneumoniae by liquid dilution method
Format: functional
Conditions: not given

| SMILES | MIC [µg/mL] |
| --- | --- |
| O=c1oc2c(Br)cc(Br)cc2cc1-c1nc2ccccc2c2nc3ccccc3n12 | 35 (≈ 67.2 µM) |
| Cc1cccc2cc(-c3nc4ccccc4c4nc5ccccc5n34)c(=O)oc12 | 30 (≈ 79.5 µM) |
| O=c1oc2ccc([N+](=O)[O-])cc2cc1-c1nc2ccccc2c2nc3ccccc3n12 | 40 (≈ 97.9 µM) |
| O=c1oc2ccccc2cc1-c1nc2ccccc2c2nc3c4nsnc4ccc3n12 | 35 (≈ 83 µM) |

Test system: Aspergillus flavus
Assay: Antifungal activity against Aspergillus flavus by liquid dilution method
Format: functional
Conditions: not given

| SMILES | MIC [µg/mL] |
| --- | --- |
| O=c1oc2c(Br)cc(Br)cc2cc1-c1nc2ccccc2c2nc3ccccc3n12 | 15 (≈ 28.8 µM) |
| Cc1cccc2cc(-c3nc4ccccc4c4nc5ccccc5n34)c(=O)oc12 | 35 (≈ 92.7 µM) |
| O=c1oc2ccc([N+](=O)[O-])cc2cc1-c1nc2ccccc2c2nc3ccccc3n12 | 45 (≈ 110 µM) |
| O=c1oc2ccccc2cc1-c1nc2ccccc2c2nc3c4nsnc4ccc3n12 | 35 (≈ 83 µM) |

Test system: Aspergillus flavus
Assay: Antifungal activity against Aspergillus flavus at 1000 ug/mL after 72 hrs by agar diffusion assay
Format: functional
Conditions: read-out: IZ

| SMILES | zone of inhibition at 1000 µg/mL [mm] |
| --- | --- |
| O=c1oc2c(Br)cc(Br)cc2cc1-c1nc2ccccc2c2nc3ccccc3n12 | 46 |
| Cc1cccc2cc(-c3nc4ccccc4c4nc5ccccc5n34)c(=O)oc12 | 35 |
| O=c1oc2ccc([N+](=O)[O-])cc2cc1-c1nc2ccccc2c2nc3ccccc3n12 | 30 |
| O=c1oc2ccccc2cc1-c1nc2ccccc2c2nc3c4nsnc4ccc3n12 | 35 |

Test system: Klebsiella pneumoniae
Assay: Antibacterial activity against Klebsiella pneumoniae at 1000 ug/mL after 72 hrs by agar diffusion assay
Format: functional
Conditions: read-out: IZ

| SMILES | zone of inhibition at 1000 µg/mL [mm] |
| --- | --- |
| O=c1oc2c(Br)cc(Br)cc2cc1-c1nc2ccccc2c2nc3ccccc3n12 | 38 |
| Cc1cccc2cc(-c3nc4ccccc4c4nc5ccccc5n34)c(=O)oc12 | 31 |
| O=c1oc2ccc([N+](=O)[O-])cc2cc1-c1nc2ccccc2c2nc3ccccc3n12 | 29 |
| O=c1oc2ccccc2cc1-c1nc2ccccc2c2nc3c4nsnc4ccc3n12 | 27 |

Test system: Salmonella typhimurium
Assay: Antibacterial activity against Salmonella Typhimurium by liquid dilution method
Format: functional, Salmonella enterica subsp. enterica serovar Typhimurium
Conditions: Salmonella enterica

| SMILES | MIC [µg/mL] |
| --- | --- |
| O=c1oc2c(Br)cc(Br)cc2cc1-c1nc2ccccc2c2nc3ccccc3n12 | 30 (≈ 57.6 µM) |
| Cc1cccc2cc(-c3nc4ccccc4c4nc5ccccc5n34)c(=O)oc12 | 20 (≈ 53 µM) |
| O=c1oc2ccc([N+](=O)[O-])cc2cc1-c1nc2ccccc2c2nc3ccccc3n12 | 25 (≈ 61.2 µM) |
| O=c1oc2ccccc2cc1-c1nc2ccccc2c2nc3c4nsnc4ccc3n12 | 30 (≈ 71.2 µM) |

Test system: Bacillus subtilis
Assay: Antibacterial activity against Bacillus subtilis by liquid dilution method
Format: functional
Conditions: not given

| SMILES | MIC [µg/mL] |
| --- | --- |
| O=c1oc2c(Br)cc(Br)cc2cc1-c1nc2ccccc2c2nc3ccccc3n12 | 50 (≈ 95.9 µM) |
| Cc1cccc2cc(-c3nc4ccccc4c4nc5ccccc5n34)c(=O)oc12 | 45 (≈ 119 µM) |
| O=c1oc2ccc([N+](=O)[O-])cc2cc1-c1nc2ccccc2c2nc3ccccc3n12 | 10 (≈ 24.5 µM) |
| O=c1oc2ccccc2cc1-c1nc2ccccc2c2nc3c4nsnc4ccc3n12 | 50 (≈ 119 µM) |

Test system: Escherichia coli
Assay: Antibacterial activity against Escherichia coli by liquid dilution method
Format: functional
Conditions: not given

| SMILES | MIC [µg/mL] |
| --- | --- |
| O=c1oc2c(Br)cc(Br)cc2cc1-c1nc2ccccc2c2nc3ccccc3n12 | 15 (≈ 28.8 µM) |
| Cc1cccc2cc(-c3nc4ccccc4c4nc5ccccc5n34)c(=O)oc12 | 40 (≈ 106 µM) |
| O=c1oc2ccc([N+](=O)[O-])cc2cc1-c1nc2ccccc2c2nc3ccccc3n12 | 30 (≈ 73.5 µM) |
| O=c1oc2ccccc2cc1-c1nc2ccccc2c2nc3c4nsnc4ccc3n12 | 45 (≈ 107 µM) |

Test system: Candida albicans
Assay: Antifungal activity against Candida albicans at 1000 ug/mL after 72 hrs by agar diffusion assay
Format: functional
Conditions: read-out: IZ

| SMILES | zone of inhibition at 1000 µg/mL [mm] |
| --- | --- |
| O=c1oc2c(Br)cc(Br)cc2cc1-c1nc2ccccc2c2nc3ccccc3n12 | 41 |
| Cc1cccc2cc(-c3nc4ccccc4c4nc5ccccc5n34)c(=O)oc12 | 32 |
| O=c1oc2ccc([N+](=O)[O-])cc2cc1-c1nc2ccccc2c2nc3ccccc3n12 | 27 |
| O=c1oc2ccccc2cc1-c1nc2ccccc2c2nc3c4nsnc4ccc3n12 | 26 |
